# Assay results taken from article PMC11161644, “An effective and rapidly degradable disinfectant from disinfection byproducts” (Nature Communications, 2024).
# Several values for one entry are separate records, joined by “and”; a condition that tells them apart may be missing. Equal values may be shown once. Read-outs that look alike come from different tables or passages of the source.
# Assays:
# [1] = tested on: E. coli (ATCC 25922); assay: Inactivation of E. coli by disinfectants (membrane filter enumeration, contact time 5 min); format: cell-based, Escherichia coli; conditions: for EC (3-log inactivation) / log reduction at 200 µg/mL: Escherichia coli, ATCC25922, 5 min; for log reduction at 200 µg/mL: dose 200 mg L-1, 5 min, read-out: Log (N/N0)
# Summary of the method: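 E. coli ATCC 25922 (10^6‒10^7 cells/mL) exposed to a series of DBP doses in 10 mM PBS (pH 7.2; pH effect tested at 6.2, 7.2, 8.2) for 5 min at 22 ± 1 °C. Survivors enumerated by membrane filtration on m-FC medium at 45 °C for 24 h; inactivation relative to undisinfected control.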
# [2] = Degradation in seawater in darkness (pH 6.2, 7.2, 8.2); conditions: for Ln (C/C0): 0 h
# Summary of the method: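 DBP spiked at 10 mg L^−1 into pretreated seawater in foil-wrapped quartz flasks, held at 20 °C in darkness for 0‒120 h with 4 mM phosphate buffer at pH 6.2, 7.2 or 8.2. Aliquots analysed by reversed-phase HPLC-UV (230 or 280 nm); duplicate runs.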
# [3] = tested on: S. aureus (ATCC 25923); assay: Inactivation of S. aureus (contact time 5 min); format: cell-based, Staphylococcus aureus; conditions: for Dose for achieving 3-log inactivation of S. aureus / S. aureus inactivation rate constant k: pH 7.2, contact time 5 min
# Summary of the method: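 Cells (10^6‒10^7 per mL) in 10 mM PBS pH 7.2 exposed to a series of DBP doses for 5 min at 22 ± 1 °C. Survivors enumerated by membrane filtration and colony counts after 24 h at 37 °C (S. aureus, Tryptone Soya; C. albicans, Sabouraud) relative to undisinfected control.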
# [4] = tested on: P. dumerilii embryos; assay: Developmental toxicity assay with P. dumerilii embryos, dilution factor of in-use concentration (EC50,DF), also after degradation in darkness; format: in vivo, Platynereis dumerilii
# Summary of the method: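 In-use DBP doses (3-log E. coli reduction, pH 7.2) were serially diluted onto embryos at 12 h postfertilization in seawater. Normal development to first larval stage was scored by microscopy at 24 h postfertilization, in duplicate. EC50,DF is the dilution factor giving 50% of control normal development.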
smiles,measurement,setting,value
"O=C1C=C(Cl)C(=O)C(Cl)=C1 [2,6-DCQ, 2,6-dichlorobenzoquinone]",Disinfection efficiency relative to PCMX (ratio of doses for 3-log inactivation),"[1]; E. coli, S. aureus, C. albicans and MS2, pH 7.2, 5 min",9.0–22 times
same,Log reduction (Mean ± SD),"[1]; E. coli, dose 7.5 mg L−1, pH 7.2, contact time 5 min",0.76 ± 0.16
same,Log reduction (Mean ± SD),"[1]; E. coli, dose 15 mg L−1, pH 7.2, contact time 5 min",4.24 ± 0.22
same,EC (3-log inactivation),"[1]; pH 7.2, read-out: Dose for achieving 3-log inactivation of E. coli",12.8 µg/mL
same,E. coli inactivation rate constant k,"[1]; pH 7.2, contact time 5 min",5.50 L mg‒1 h‒1
same,half-life at 10 mg L−1,"[2]; buffer, pH 6.2",76.2 h
same,half-life at 10 mg L−1,"[2]; buffer, pH 7.2",13.4 h
same,half-life at 10 mg L−1,"[2]; buffer, pH 8.2",1.74 h
same,Degradation rate constant k,"[2]; pH 6.2, without solar irradiation",0.009 h⁻¹
same,Ln (C/C0),[2]; pH 6.2 in darkness,0
same,Ln (C/C0),[2]; pH 7.2 in darkness,0
same,Ln (C/C0),"[2]; seawater pH 8.2, darkness",0
same,Degradation rate constant k,"[2]; seawater pH 8.2, without solar irradiation",0.397 h‒1
same,Dose for achieving 3-log inactivation of S. aureus,[3],28.6 mg L−1
same,S. aureus inactivation rate constant k,[3],20200 µL/min/mg
same,Normal development,"[4]; 2,6-DCQ, degradation 0 h, dilution factor 12.8",7.407% and 6.667%
same,Normal development,"[4]; 2,6-DCQ, degradation 0 h, dilution factor 17.0667",16.2963% and 20.7921%
same,Normal development,"[4]; 2,6-DCQ, degradation 0 h, dilution factor 21.3333",42.1875% and 37.2727%
same,Normal development,"[4]; 2,6-DCQ, degradation 0 h, dilution factor 25.6",62.0155% and 62.3077%
same,Normal development,"[4]; 2,6-DCQ, degradation 0 h, dilution factor 32",80% and 80.822%
same,Normal development,"[4]; 2,6-DCQ, degradation 0 h, dilution factor 42.6667",76.7442% and 82.4428%
same,Normal development,"[4]; 2,6-DCQ, degradation 1 h, dilution factor 6.4",1.886% and 1.145%
same,Normal development,"[4]; 2,6-DCQ, degradation 1 h, dilution factor 8.5333",4.186% and 11.8136%
same,Normal development,"[4]; 2,6-DCQ, degradation 1 h, dilution factor 10.6667",24.138% and 24.6154%
same,Normal development,"[4]; 2,6-DCQ, degradation 1 h, dilution factor 12.8",51.5152% and 47.1698%
same,Normal development,"[4]; 2,6-DCQ, degradation 1 h, dilution factor 16",70.5883% and 65.2173%
same,Normal development,"[4]; 2,6-DCQ, degradation 2 h, dilution factor 6.4",11.0368% and 10.1754%
same,Normal development,"[4]; 2,6-DCQ, degradation 2 h, dilution factor 8.5333",46.773% and 42.9328%
same,Normal development,"[4]; 2,6-DCQ, degradation 2 h, dilution factor 10.6667",58.0645% and 64.2277%
same,Normal development,"[4]; 2,6-DCQ, degradation 2 h, dilution factor 12.8",77.7778% and 71.0938%
same,Normal development,"[4]; 2,6-DCQ, degradation 2 h, dilution factor 16",82.2282% and 85.1792%
same,Normal development,"[4]; 2,6-DCQ, degradation 4 h, dilution factor 1.28",3.429% and 2.688%
same,Normal development,"[4]; 2,6-DCQ, degradation 4 h, dilution factor 1.6",15.8884% and 20.3842%
same,Normal development,"[4]; 2,6-DCQ, degradation 4 h, dilution factor 1.8286",27.1674% and 32.6748%
same,Normal development,"[4]; 2,6-DCQ, degradation 4 h, dilution factor 2.1333",54.2087% and 56.2379%
same,Normal development,"[4]; 2,6-DCQ, degradation 4 h, dilution factor 2.8444",78.1453% and 71.7507%
same,Normal development,"[4]; 2,6-DCQ, degradation 4 h, dilution factor 4.2667",76.1253% and 77.0995%
same,Normal development,"[4]; 2,6-DCQ, degradation 6 h, dilution factor 0.8",0%
same,Normal development,"[4]; 2,6-DCQ, degradation 6 h, dilution factor 0.9143",0%
same,Normal development,"[4]; 2,6-DCQ, degradation 6 h, dilution factor 1.0667",6.421% and 4.805%
same,Normal development,"[4]; 2,6-DCQ, degradation 6 h, dilution factor 1.28",19.2308% and 16.923%
same,Normal development,"[4]; 2,6-DCQ, degradation 6 h, dilution factor 1.6",44.5256% and 45.8716%
same,Normal development,"[4]; 2,6-DCQ, degradation 6 h, dilution factor 1.8286",55.6999% and 52.4319%
same,Normal development,"[4]; 2,6-DCQ, degradation 10 h, dilution factor 0.3657",0%
same,Normal development,"[4]; 2,6-DCQ, degradation 10 h, dilution factor 0.4267",10.4446% and 5.949%
same,Normal development,"[4]; 2,6-DCQ, degradation 10 h, dilution factor 0.512",22.4806% and 12.844%
same,Normal development,"[4]; 2,6-DCQ, degradation 10 h, dilution factor 0.64",50% and 42.3728%
same,Normal development,"[4]; 2,6-DCQ, degradation 10 h, dilution factor 0.8533",73.1885% and 72.3577%
same,Normal development,"[4]; 2,6-DCQ, degradation 10 h, dilution factor 1.28",86.5288% and 89.8492%
same,Normal development,"[4]; 2,6-DCQ, degradation 24 h, dilution factor 0.2844",11.3922% and 10.426%
same,Normal development,"[4]; 2,6-DCQ, degradation 24 h, dilution factor 0.32",28.4579%
same,Normal development,"[4]; 2,6-DCQ, degradation 24 h, dilution factor 0.3657",46.3636% and 52.9132%
same,Normal development,"[4]; 2,6-DCQ, degradation 24 h, dilution factor 0.4267",72.0505% and 66.5657%
same,Normal development,"[4]; 2,6-DCQ, degradation 24 h, dilution factor 0.512",75.7656% and 68.6094%
same,Normal development,"[4]; 2,6-DCQ, degradation 24 h, dilution factor 0.64",71.3237% and 68.0033%
same,Normal development,"[4]; 2,6-DCQ, degradation 48 h, dilution factor 0.2695",37.7015% and 37.2985%
same,Normal development,"[4]; 2,6-DCQ, degradation 48 h, dilution factor 0.2844",52.938% and 47.9316%
same,Normal development,"[4]; 2,6-DCQ, degradation 48 h, dilution factor 0.32",57.0093% and 59.2105%
same,Normal development,"[4]; 2,6-DCQ, degradation 48 h, dilution factor 0.3657",74.6032% and 77.2414%
same,Normal development,"[4]; 2,6-DCQ, degradation 48 h, dilution factor 0.4267",81.3111% and 83.4889%
same,Toxicity relative to PCMX (times less toxic),[4]; after 48-h degradation in seawater in darkness,31 times
same,"EC50,DF as share of EC50,DF of PCMX",[4]; after 48 h degradation in darkness,3.0%
"Cc1cc(O)cc(C)c1Cl [PCMX, para-chloro-meta-xylenol, reference compound]",log reduction at 200 µg/mL,"[1]; pH 6.2, E. coli, pH 6.2",4.19
same,log reduction at 200 µg/mL,"[1]; pH 7.2, E. coli, pH 7.2",3.54
same,log reduction at 200 µg/mL,"[1]; pH 8.2, E. coli, pH 8.2",5.56
same,EC (3-log inactivation),"[1]; pH 7.2, contact time 5 min, read-out: Dose for achieving 3-log inactivation of E. coli",188 µg/mL
same,E. coli inactivation rate constant k,"[1]; pH 7.2, contact time 5 min",0.66 L mg‒1 h‒1
same,half-life at 10 mg L−1,[2]; pretreated seawater in darkness,~5760 h
same,Ln (C/C0),"[2]; seawater pH 8.2, darkness",0
same,Degradation in 120 h,"[2]; seawater, absence of sunlight",less than 5%
same,log reduction at 300 µg/mL,"[3]; Staphylococcus aureus, ATCC25923, 5 min, pH 7.2, S. aureus, dose 300 mg L-1, pH 7.2, contact time 5 min, read-out: Log (N/N0)",3.04
same,Dose for achieving 3-log inactivation of S. aureus,[3],308 mg L−1
same,S. aureus inactivation rate constant k,[3],3670 µL/min/mg
same,Normal development,"[4]; PCMX, degradation 0 h, dilution factor 6.7143",0%
same,Normal development,"[4]; PCMX, degradation 0 h, dilution factor 7.2308",4.232% and 2.756%
same,Normal development,"[4]; PCMX, degradation 0 h, dilution factor 7.6735",25.4292% and 17.7492%
same,Normal development,"[4]; PCMX, degradation 0 h, dilution factor 8.1739",29.4152% and 29.5272%
same,Normal development,"[4]; PCMX, degradation 0 h, dilution factor 8.7442",46.2529% and 46.0367%
same,Normal development,"[4]; PCMX, degradation 0 h, dilution factor 9.4",56.894% and 62.197%
same,Normal development,"[4]; PCMX, degradation 0 h, dilution factor 10.4444",76.1488% and 70.708%
same,Normal development,"[4]; PCMX, degradation 0 h, dilution factor 11.75",84.2318% and 84.1758%
same,Normal development,"[4]; PCMX, degradation 48 h, dilution factor 6.7143",0%
same,Normal development,"[4]; PCMX, degradation 48 h, dilution factor 7.2308",0%
same,Normal development,"[4]; PCMX, degradation 48 h, dilution factor 7.6735",5.72% and 1.379%
same,Normal development,"[4]; PCMX, degradation 48 h, dilution factor 8.1739",20.3803% and 14.4749%
same,Normal development,"[4]; PCMX, degradation 48 h, dilution factor 8.7442",43.6056% and 44.3682%
same,Normal development,"[4]; PCMX, degradation 48 h, dilution factor 9.4",43.7739% and 49.5131%
same,Normal development,"[4]; PCMX, degradation 48 h, dilution factor 10.4444",54.207% and 47.1234%
same,Normal development,"[4]; PCMX, degradation 48 h, dilution factor 11.75",73.3565% and 68.3577%
same,Normal development (%),[4]; dilution factor 6.7143 of in-use concentration,0%
same,Normal development (%),[4]; dilution factor 7.2308,4.232% and 2.756%
same,Normal development (%),[4]; dilution factor 7.6735,25.4292% and 17.7492%
same,Normal development (%),[4]; dilution factor 8.1739,29.4152% and 29.5272%
same,Normal development (%),[4]; dilution factor 8.7442,46.0367% and 46.2529%
same,Normal development (%),[4]; dilution factor 9.4,62.197% and 56.894%
same,Normal development (%),[4]; dilution factor 10.4444,76.1488% and 70.708%
same,Normal development (%),[4]; dilution factor 11.75,84.2038%
